Publication PMC11544713, “The Application of Untargeted Metabolomic Approaches for the Search of Common Bioavailable Metabolites in Human Plasma Samples from Lippia citriodora and Olea europaea Extracts” (Journal of Agricultural and Food Chemistry, 2024)

Experiment: Acute intervention: nutrikinetics of plasma metabolites after ingestion of O. europaea extract (untargeted HPLC-ESI-QTOF-MS)
Procedure: A total of 25 healthy individuals participated, with an average age of 27 ± 9 years and a mean body mass index (BMI) of 23 ± 3 kg/m^2. None of the participants were taking any medications or nutritional supplements nor did they have any chronic diseases or gastrointestinal issues. The sample size was established based on findings from previous bioavailability research.[14] All participants provided informed consent before participating in the study.
The intervention study was carried out at Miguel Hernández University. Following an overnight fast, the volunteers were categorized into the subsequent groups: a subgroup to evaluate the LC leaf extract (n = 8), another for the OE leaf extract (n = 8), and the placebo subgroup (n = 9). This was a double-blind study, in which sample collection and treatment were carried out uniformly across all three subgroups.
Water was provided ad libitum. Prior to the ingestion of the capsule, a nurse inserted a cannula into the ulnar vein of each volunteer’s nondominant arm, and blood samples were drawn into EDTA-coated tubes at baseline (t = 0). Blood samples were then collected at 0.5, 1, 2, 4, 6, 8, and 10 h after the consumption of the 500 mg capsule. Plasma was separated through centrifugation (10 min at 3000 rpm and 4 °C) and stored at −80 °C until further analysis.
Plasma samples were initially treated using a mixture of methanol and ethanol (50:50; v:v) to remove proteins, following previously reported protocols.[19] During the sample treatment, pooled quality controls (pooled-QC) were prepared by combining equal aliquots from each sample. These QC samples were processed by using the same protocols as the experimental biological samples.
A reversed-phase analytical C18 column (Agilent Zorbax Eclipse Plus, 1.8 μm, 4.6 × 150 mm^2) with a protective cartridge with the same packing was used. MS data were acquired in negative ionization mode, operating in full scan across a mass-to-charge ratio (m/z) range of 50–1700. The analytical method used was adapted from that described by Villegas-Aguilar et al.[19]
Metabolite nutrikinetics were studied using PKSolver, an add-in program for pharmacokinetic data analysis in Microsoft Excel. The time to reach the maximum concentration (observed Tmax) was calculated for each significant metabolite. As an untargeted metabolomic approach was used to detect the circulating metabolites, these were not quantified. Therefore, the maximum concentration (Cmax) and area under the curve (AUC) parameters were calculated in a relative way by using the deconvoluted chromatographic areas. […] Statistical differences were determined by unpaired t tests. All p values less than 0.05 were considered statistically significant.

[1] = 0.5 h after O. europaea extract
[2] = human plasma, 500 mg capsule of O. europaea (OE) extract, oral, mean ± SD

Compound	mean chromatographic area in plasma, T0.5 [1]	mean chromatographic area in plasma, T1 (1 h after O. europaea extract)	mean chromatographic area in plasma, T2 (2 h after O. europaea extract)	mean chromatographic area in plasma, T4 (4 h after O. europaea extract)	mean chromatographic area in plasma, T6 (6 h after O. europaea extract)	mean chromatographic area in plasma, T8 (8 h after O. europaea extract)	mean chromatographic area in plasma, T10 (10 h after O. europaea extract)	Cmax: relative maximum plasma level [2]	observed Tmax: time required to reach Cmax [2]	Cmax: relative maximum plasma level (human, in vivo, po, 500 mg)	observed Tmax: time required to reach Cmax (human, in vivo, po, 500 mg)	mean chromatographic area in plasma, T0.5 (in vivo)	mean chromatographic area in plasma, T1 (in vivo)	mean chromatographic area in plasma, T2 (in vivo)	mean chromatographic area in plasma, T4 (in vivo)	mean chromatographic area in plasma, T6 (in vivo)	mean chromatographic area in plasma, T8 (in vivo)	mean chromatographic area in plasma, T10 (in vivo)
10-hydroxy-7 -methoxyoleuropein [10-hydroxy-7-methoxyoleuropein isomer 1]	0	61	107	16	0	0	0	107 ± 22 relative chromatographic area	2 ± 0 h	–	–	–	–	–	–	–	–	–
10-hydroxy-7 -methoxyoleuropein [10-hydroxy-7-methoxyoleuropein isomer 2]	11	164	229	148	34	0	0	241 ± 89 relative chromatographic area	1.9 ± 0.3 h	–	–	–	–	–	–	–	–	–
OC[C@H]1O[C@@H](OCc2ccoc2)[C@H](O)[C@@H](O)[C@@H]1O (single isomer, unassigned; isomer 1) [3-furanmethanol glucoside isomer 1, 3-furanmethanol glucoside]	27	200	184	107	17	0	0	236 ± 104 relative chromatographic area	1.6 ± 0.5 h	–	–	–	–	–	–	–	–	–
OC[C@H]1O[C@@H](OCc2ccoc2)[C@H](O)[C@@H](O)[C@@H]1O (single isomer, unassigned; isomer 2) [3-furanmethanol glucoside isomer 2, 3-furanmethanol glucoside]	625	1234	961	483	250	113	0	1234 ± 489 relative chromatographic area	1 ± 0 h	–	–	–	–	–	–	–	–	–
COc1cc(C)cc(OC)c1OC [1,2,3-trimethoxy-5-methyl benzene]	117	221	105	0	0	0	0	221 ± 72 relative chromatographic area	1 ± 0 h	–	–	–	–	–	–	–	–	–
Oc1cc(O)c2c(c1)O[C@H](c1ccc(O)c(O)c1)[C@H](O)[C@H]2SCc1ccccc1 [4β-benzylthioepicatechin]	25	123	151	50	0	0	0	158 ± 62 relative chromatographic area	1.7 ± 0.5 h	–	–	–	–	–	–	–	–	–
COC(=O)C1=CO[C@H](O)/C(=C/CO)[C@@H]1CC(=O)OCCc1ccc(O)c(O)c1 [10-hydroxyoleuropein aglycone]	165	142	15	0	0	0	0	194 ± 76 relative chromatographic area	0.7 ± 0.2 h	–	–	–	–	–	–	–	–	–
O=C(/C=C/C1=CC(=O)C(=O)C=C1)OC1CC(O)(C(=O)O)CC(O)C1O (stereo not drawn) [chlorogenoquinone]	181	315	154	12	11	0	0	324 ± 7 relative chromatographic area	0.9 ± 0.2 h	–	–	–	–	–	–	–	–	–
C[C@]12CC[C@@H](O[C@@H]3O[C@H](C(=O)O)[C@@H](O)[C@H](O)[C@H]3O)C[C@@H]1CC[C@@H]1[C@@H]2C(=O)C[C@@]2(C)[C@H]1CC[C@]2(O)[C@@H](O)CO [cortolone-3-glucuronide]	0	0	0	160	82	63	0	163 ± 88 relative chromatographic area	4.4 ± 0.8 h	–	–	–	–	–	–	–	–	–
O=C(O)CCCCCCCCC(=O)O [debacic acid isomer 3, sebacic acid]	–	–	–	–	–	–	–	–	–	330 ± 109 relative chromatographic area	6 ± 2 h	13	0	33	209	226	178	141
O=C(O)CCCCCCCCC(=O)O [decanedioic acid isomer 1, decanedioic acid]	0	169	232	167	68	11	0	232 ± 48 relative chromatographic area	2 ± 0 h	–	–	–	–	–	–	–	–	–
O=C(O)CCCCCCCCC(=O)O [decanedioic acid isomer 2, decanedioic acid]	0	0	26	47	84	38	60	112 ± 11 relative chromatographic area	6 ± 3 h	–	–	–	–	–	–	–	–	–
CC(=O)Oc1cc2c(c(C)c1OC(C)=O)CC=C1[C@@]2(C)CC[C@@]2(C)C3C[C@](C)(C(=O)O)CC[C@]3(C)CC[C@]12C (stereo partly drawn) [dihydrocelastryl diacetate]	0	38	150	163	81	38	20	239 ± 78 relative chromatographic area	3 ± 1 h	–	–	–	–	–	–	–	–	–
